Converted amounts (≈) assume the structure as drawn.
What was measured:
[1] = Dissolution rate test (suspension in methanol/water with temperature cycling, decomposition after 14 days); format: physicochemical; conditions: suspended in methanol : water 1 : 5 (volume), 10-30° C, 14 days later; for decomposition rate: temperature periodically changed at 0.5K/min
Description: Further, in the present disclosure, the dissolution rate of crystal from D of tembotrione was tested as following: the crystal form D of tembotrione was suspended in a mixture of methanol and water (the volume ratio of methanol : water was 1 : 5) at a temperature of 10-30° C, and the temperature was changed at a rate of 0.5K/min. […] Crystal forms A, B, C and D of tembotrione were suspended in a mixture of methanol and water (the volume ratio of methanol to water was 1 : 5) at a temperature of 10-30° C, and the temperature was periodically changed at a rate of 0.5K/min.

physchem = format: physicochemical; conditions: for Solubility, water: pH 4; for solubility: 25 °C, thermodynamic from solid
Description: At 25±2°C, 100mL (which may be scaled down) solvent was added in a beaker. A certain mass of crystal forms A, B, C and D of tembotrione were weighted (to ensure insufficient dissolution, tembotrione may be weighted more than once if necessary and the total mass was calculated). The solute was gradually added, continuously stirred and sufficiently dissolved until the solution was exactly saturated (if there was solid precipitation, it was filtrated out and dried, and put back to the undissolved solid). Total mass of the undissolved solid was weighted to calculate the mass of the dissolved solid in 100mL (100g) solvent, i.e., the solubility of the solid in the solvent at the temperature. In the present disclosure, solubility of crystal forms A, B, C and D of tembotrione in several common solvents were tested, and the results were shown in Table 2. Table 2 Solubility of crystal forms A, B, C and D of tembotrione in different solvents

| SMILES | dissolution rate ([1]; 0.5K/min) | decomposition rate [1] [%] | Solubility, methanol (physchem) [µg/mL] | Solubility, toluene (physchem) [µg/mL] | Solubility, water (physchem) [µg/mL] | solubility (physchem; organic solvent or mixture, methanol) [µg/mL] | solubility (physchem; organic solvent or mixture, toluene) [µg/mL] | solubility (physchem; pH 4, aqueous buffer, water) [µg/mL] |
| --- | --- | --- | --- | --- | --- | --- | --- | --- |
| CS(=O)(=O)c1ccc(C(=O)C2C(=O)CCCC2=O)c(Cl)c1COCC(F)(F)F [crystal form D, 2-[2-chloro-4-methylsulfonyl-3-(2,2,2-trifluoroethoxymethyl)benzoyl]cyclohexane-1,3-dione] | slow | 0.06 | 8200 (≈ 18.6 mM) | 75700 (≈ 172 mM) | 220 (≈ 0.499 mM) |  |  |  |
| CS(=O)(=O)c1ccc(C(=O)C2C(=O)CCCC2=O)c(Cl)c1COCC(F)(F)F [crystal form B, 2-[2-chloro-4-methylsulfonyl-3-(2,2,2-trifluoroethoxymethyl)benzoyl]cyclohexane-1,3-dione] |  | 0.4 | 8800 (≈ 20 mM) | 81000 (≈ 184 mM) | 280 (≈ 0.635 mM) |  |  |  |
| CS(=O)(=O)c1ccc(C(=O)C2C(=O)CCCC2=O)c(Cl)c1COCC(F)(F)F [crystal form C, 2-[2-chloro-4-methylsulfonyl-3-(2,2,2-trifluoroethoxymethyl)benzoyl]cyclohexane-1,3-dione] |  | 0.15 | 8500 (≈ 19.3 mM) | 80200 (≈ 182 mM) | 250 (≈ 0.567 mM) |  |  |  |
| CS(=O)(=O)c1ccc(C(=O)C2C(=O)CCCC2=O)c(Cl)c1COCC(F)(F)F [crystal form A, 2-[2-chloro-4-methylsulfonyl-3-(2,2,2-trifluoroethoxymethyl)benzoyl]cyclohexane-1,3-dione] |  | 0.1 |  |  |  | 8600 (≈ 19.5 mM) | 80000 (≈ 181 mM) | 260 (≈ 0.59 mM) |

Source: patent EP3744709B1, “NEW CRYSTAL FORM OF TEMBOTRIONE” (ANHUI JIUYI AGRICULTURE CO., LTD., priority 2018, dated 2020)
